In BigSolDB 2.1:

CC(CO)(CO)C(=O)O
solubility (mole fraction)
Details | in 1,4-dioxane | in MIBK | in cyclopentyl methyl ether | in ethyl acetate | in gamma-butyrolactone | in gamma-valerolactone | in n-butyl acetate
298.15 K | 0.00778 | 0.0149 | 0.00164 | 0.00368 | 0.00637 | 0.00643 | 0.00173
303.15 K | 0.00937 | 0.0164 | 0.00194 | 0.00388 | 0.00793 | 0.008 | 0.00199
308.15 K | 0.0124 | 0.0172 | 0.00239 | 0.00447 | 0.00942 | 0.00913 | 0.00234
313.15 K | 0.0147 | 0.0186 | 0.00276 | 0.00507 | 0.012 | 0.0107 | 0.00268
318.15 K | 0.0178 | 0.0192 | 0.00329 | 0.00646 | 0.0148 | 0.0124 | 0.00294
323.15 K | 0.0219 | 0.0202 | 0.00366 | 0.00745 | 0.0187 | 0.0146 | 0.00381
328.15 K | 0.0258 | 0.022 | 0.00381 | 0.00824 | 0.0214 | 0.0183 | 0.00433
333.15 K | 0.0334 | 0.0244 | 0.00433 | 0.0124 | 0.026 | 0.0218 | 0.00528
338.15 K | 0.0365 | 0.0259 | 0.00501 | 0.0147 | 0.0315 | 0.0251 | 0.00572
343.15 K | 0.041 | 0.0274 | 0.00598 | – | 0.0367 | 0.0305 | 0.00685
345.15 K | 0.0442 | – | – | – | 0.0392 | 0.0324 | –
348.15 K | 0.0479 | 0.0288 | 0.00621 | – | 0.042 | 0.037 | 0.00763
350.15 K | 0.0501 | – | – | – | 0.048 | 0.0386 | –
353.15 K | 0.0535 | 0.0296 | 0.00906 | – | 0.0529 | 0.0406 | 0.00902
